Tests used:
[1] = system: house mosquito (Cullex pipiens pallens); experiment: Larvicidal test against larvae of house mosquito (Test Example 5); format: in vivo; settings: 216 h, 2.5 ppb, 9th day after release, 26° C.
Method: Two hundreds ml of a diluted solution containing 2.5 ppb of each active ingredient was poured into a jar and 20 larvae of house mosquito (Cullex pipiens pallens) were released into the jar. Then, the jar was kept in a constant temperature chamber with lightening at 26° C. Larvae were fed every other day with 1-2 mg of powdered feed. On the 9th day after the release, dead insects were counted, and the mortality was calculated in the same manner as in Test Example 2. The results are shown in […]

[2] = system: house fly (Musca domestica); experiment: Egg hatch inhibition test by the treatment of adults of house fly (Test Example 6); format: in vivo; settings: po, 100 μg/g in diet of adult females for 3 days, unhatched eggs assessed one day after collection, read-out: ratio of the egg hatch inhibition (REHI)
Method: Sugar and skim milk were mixed in a weight ratio of 1:1, and 2 g of the mixture was put into a Petri dish having a diameter of 5.5 cm. 0.5 ml of an acetone solution containing the active ingredient was added to the mixture in the Petri dish. After acetone evaporated, the treated mixture was thoroughly mixed, and the concentration of the active ingredient was adjusted to 100 μg/g. Twenty non-mating females of house fly (Musca domestica) were allowed to feed on the poisoned diet (the treated mixture) in a cage. After 3 days, the diet was changed to the untreated mixture, then 20 non-mating males were released into the cage for mating. On the 3rd day after release, a cup of the medium for rearing fly larvae was set in the cage for oviposition for 7 hours. The egg laid on the medium were collected and kept on the moistened filter paper in a Petri dish. One day later, unhatched eggs were assessed and the ratio of the egg hatch inhibition (REHI) was calculated by the following equation: [formula]

[3] = system: two-spotted spider mite (Tetranychus urticae); experiment: Miticidal test against two-spotted spider mite (Test Example 1); format: in vivo; settings: 120 h, 5th day after treatment, larvae and nimphs on French bean, 26° C.
From the text: Each formulation containing an active ingredient was dispersed in water to obtain a dispersion of each active ingredient having a concentration of 800 or 200 ppm. Each of French bean seedlings with only on primary leaf left, was transplanted to a cup having a diameter of 7 cm and a height of 4 cm. About 30 larvae and […] of two-spotted spider mite (Tetranychus urticae) were infested to the leaf of the French bean. Then, the French bean was dipped in the dispersion having the concentration of 800 ppm or 200 ppm for about 10 seconds, then dried in air and kept in a constant temperature chamber with lightening at 26° C. On the 5th day after the treatment, dead mites were counted, and the mortality was calculated by the following equation: [formula]

[4] = system: house fly (Musca domestica); experiment: Larvicidal test against larvae of house fly (Test Example 4); format: in vivo; settings: feed or water, 240 h, 10 ppm in feed, second instar larvae, 10th day after release, emerged adults counted
Method: Powder feed for test animals (manufactured by Oriental Kobo Kogyo K.K.) and bran were mixed in a weight ratio of 1:1 and pulverized, and 10 g of the mixture was packed in an ice cream cup. Each of the formulations containing the active ingredients, was dispersed in water, and 10 ml of the dispersion was added to the mixture in the ice cream cup and thoroughly mixed to adjust the concentration of the active ingredient to 10 ppm. Into the ice cream cup, 20 larvae of house fly (Musca domestica) in second instar were released, and kept in a constant temperature chamber with lightening at 26° C. On the 10th day after the release, the emerged adults were counted, and the mortality was calculated in accordance with the following equation. [formula]

[5] = system: common cutworm (Spodoptera litura); experiment: Insecticidal test against common cutworm (Test Example 3); format: in vivo; settings: 168 h, 1 ppm, second or third instar larvae, 7th day after release
From the text: (§1) Each formulation containing an active ingredient was dispersed in water to obtain a dispersion of each active ingredient having a concentration of 10 ppm. Leaves of cabbage were dipped in the respective dispersions for about 10 seconds, and then dried in air. A sheet of moistened filter paper was placed in a Petri dish having a diameter of 9 cm, and the dried leaves of cabbage were put on the filter paper. Larvae of diamondback moth (Plutella xylostella) in second or third instar were released on the leaves, and the Petri dishes were covered and kept in a constant temperature chamber with lightening at a temperature of 26° C. On the 7th day after release, dead insects were counted, and the mortality was calculated by the following equation: […]
(§2) The tests were conducted in the same manner as in Test Example 2 except that larvae of common cutworm (Spodoptera litura) in second or third instar were used instead of larvae of the diamondback moth in second or third instar, and the concentration of the active ingredient was changed from 10 ppm to 800 ppm or 1 ppm.

Common cutworm = experiment: Insecticidal test (C-value) against common cutworm (Test Example 7-I); format: in vivo; settings: Spodoptera litura, 168 h; minimum concentration at which no less than 90% of insects are killed
From the text: as §1, §2
(§3) In the same manner as in Test Examples 2 and 3, insecticidal tests against diamondback moth and common cutworm were conducted with respect to each compound, and the minimum concentrations at which no less than 90% of insects are killed (hereinafter referred to as C-value), were obtained.

Diamondback moth = experiment: Insecticidal test (C-value) against diamondback moth (Test Example 7-I); format: in vivo; settings: Plutella xylostella, 168 h; minimum concentration at which no less than 90% of insects are killed
From the text: as §1, §3

Daphnia magna Straus = experiment: Acute Immobilisation Test against Daphnia magna Straus (Test Example 7-II); format: in vivo; settings: first instar larvae; up to 48 hours; 23±1° C.; OECD guideline; Probit method
Method: An acetone solution of each compound was dispersed in water to obtain test solutions having various concentrations of the active ingredient. 250 ml of each test solution was introduced into a 430 ml glass beaker. Into each beaker, 10 first instar larvae born within 24 hours were released and kept at the solution temperature of 23±1° C. The immobilisation up to 48 hours after the release of the larvae was investigated in accordance with the OECD test guideline. The test was repeated 2-3 times in two series for each concentration. The 50% immobilisation concentration (EC50, ppb) was obtained by Probit method.

[6] = Residual test in soil (Test Example 7-III); settings: upland volcanic ash soil, irrigated condition; 5 ppm; 20 days; 30° C.
Method: Upland soil (volcanic ash soil) was screened through a sieve with a mesh size of 5 mm, and 20 g by dry weight basis of the soil was put into a 100 ml Erlenmeyer flask. Then, distilled water was introduced to simulate an irrigated condition with a water depth of 1 cm. An aluminum foil was put on the top of the flask, and the flask was left to stand still for 1 week in an incubator (dark place) at 30° C.
0.5 ml of a 200 ppm dispersion in acetone of each compound (100 μg) was added to the flask by means of a pipet (to a concentration of 5 ppm). The flask was closed and thoroughly shaked, and the soil attached to the closure was washed into the flask with a small amount of water. Then, the top of the flask was covered with an aluminum foil, and the flask was subjected to incubation in a growth cabinet (30° C., humidity: 60%, continuously lighted with a fluorescent lamp with 9,000 lux). 20 Days later, the total 20 g of the soil was subjected to analysis, and the remaining amount of the compound was measured.

| SMILES | inhibition at 100 µg/g [2] | minimal effective concentration (Common cutworm) | minimal effective concentration (Diamondback moth) | EC50 of Daphnia magna Straus (50% immobilisation concentration) (Daphnia magna Straus) | Remaining rate in the soil [6] | other results |
| --- | --- | --- | --- | --- | --- | --- |
| CN(C(=O)NC(=O)c1c(F)cccc1F)c1cc(Cl)c(Oc2ncc(C(F)(F)F)cc2Cl)c(Cl)c1 [Compound No. 1, N-[3,5-dichloro-4-(3-chloro-5-trifluoromethyl-2-pyridyloxy)phenyl]-N'-(2,6difluorobenzoyl)-N-methylurea] | 100% | – | – | – | – | mortality at 0.0025 ppm [1]: 100% |
| CN(C(=O)NC(=O)c1c(F)cccc1F)c1ccc(Oc2ncc(C(F)(F)F)cc2Cl)c(F)c1F [Compound No. 2, N-[4-(3-chloro-5-trifluoromethyl-2-pyridyloxy)-2,3-difluorophenyl]-N'-(2,6, -difluorobenzoyl)-N-methylurea] | – | – | – | – | – | mortality at 0.0025 ppm [1]: 90% |
| CN(C(=O)NC(=O)c1c(F)cccc1F)c1ccc(Oc2ncc(C(F)(F)F)cc2Cl)c(F)c1 [Compound No. 3, N-{4-[3-chloro-5-trifluoromethyl-2-pyridyloxy]-3-fluorophenyl}-N'-(2,6-difluorobenzoyl)-N-methylurea] | 88% | – | – | – | – | mortality at 0.0025 ppm [1]: 100% |
| CN(C(=O)NC(=O)c1c(F)cccc1F)c1ccc(Oc2ccc(C(F)(F)F)cc2Cl)c(F)c1 [Compound No. 4, N-{4-[2-chloro-4-trifluoromethylphenoxy]-3-fluorophenyl}-N'-(2,6-difluorobenzoyl)-N-methylurea] | – | – | – | – | – | mortality at 800 ppm [3]: 90%; mortality at 0.0025 ppm [1]: 100% |
| COC(=O)c1cc(N(C)C(=O)NC(=O)c2c(F)cccc2F)cc(C)c1Oc1ncc(C(F)(F)F)cc1Cl [Compound No. 6] | – | – | – | – | – | mortality at 10 ppm [4]: 90% |
| CN(C(=O)NC(=O)c1c(F)cccc1F)c1ccc(Oc2ccc(C(F)(F)F)cc2Cl)cc1 [Compound No. 18, N-[4-(2-chloro-4-trifluoromethylphenoxy)phenyl]-N'-(2,6-difluorobenzoyl)-N-methylurea] | – | – | – | – | – | mortality at 200 ppm [3]: 100% |
| CN(C(=O)NC(=O)c1c(F)cccc1F)c1cc(F)c(-c2ccc(C(F)(F)F)cc2)cc1F [Compound No. 24] | 100% | – | – | – | – | mortality at 10 ppm [4]: 100% |
| CN(C(=O)NC(=O)c1c(F)cccc1F)c1ccc(-c2ccc(Br)cc2)cc1 [Compound No. 29, N-(4'-bromo-4-biphenylyl)-N'-(2,6difluorobenzoyl)-N-methylurea] | 100% | – | – | – | – | mortality at 1 ppm [5]: 100% |
| CN(C(=O)NC(=O)c1c(F)cccc1F)c1ccc(Oc2ccc(C(F)(F)F)cc2Cl)c(Cl)c1 [compound 12, N-[3-chloro-4-(2-chloro-4-trifluoromethylphenoxy)phenyl]-N'-(2,6-difluorobenzoyl)-N-methylurea] | 100% | – | – | – | – | mortality at 200 ppm [3]: 100%; mortality at 800 ppm [3]: 100%; mortality at 10 ppm [4]: 100% |
| CN(C(=O)NC(=O)c1c(F)cccc1F)c1ccc(Oc2ccc(C(F)(F)F)cc2Cl)c(Cl)c1F [compound 13, N-[3-chloro-4-(2-chloro-4-trifluoromethylphenoxy)-2-fluorophenyl]-N'-(2,6-difluorobenzoyl)-N-methylurea] | 100% | – | – | – | – | mortality at 200 ppm [3]: 99%; mortality at 10 ppm [4]: 100% |
| CN(C(=O)NC(=O)c1c(F)cccc1F)c1ccc(Oc2ccc(C(F)(F)F)cc2Cl)c(F)c1 [drawing 47 (R=CH3)] | – | 0.04 µg/mL | 0.08 µg/mL | 150 ppb | 76% | – |
| O=C(NC(=O)c1c(F)cccc1F)Nc1ccc(Oc2ccc(C(F)(F)F)cc2Cl)c(F)c1 [drawing 47 (R=H), reference compound] | – | 0.04 µg/mL | 0.08 µg/mL | < 0.4 ppb | 91% | – |
| CN(C(=O)NC(=O)c1c(F)cccc1F)c1ccc(Oc2ccc(C(F)(F)F)cc2Cl)cc1 [drawing 48 (R=CH3)] | – | 0.02 µg/mL | 0.02 µg/mL | 50 ppb | 49% | – |
| O=C(NC(=O)c1c(F)cccc1F)Nc1ccc(Oc2ccc(C(F)(F)F)cc2Cl)cc1 [drawing 48 (R=H), reference compound] | – | 0.08 µg/mL | 0.08 µg/mL | < 0.4 ppb | 84% | – |
| CN(C(=O)NC(=O)c1c(F)cccc1F)c1ccc(-c2ccc(Br)cc2)cc1 [drawing 49 (R=CH3)] | – | 0.04 µg/mL | 0.02 µg/mL | 150 ppb | 45% | – |
| O=C(NC(=O)c1c(F)cccc1F)Nc1ccc(-c2ccc(Br)cc2)cc1 [drawing 49 (R=H), reference compound] | – | 0.6 µg/mL | 0.3 µg/mL | < 0.8 ppb | 77% | – |

— US4985449A, “N-benzoyl-N-pyridyloxy phenyl urea compounds and pesticide compositions containing them” (Ishihara Sangyo Kaisha Ltd., priority 1986, dated 1991)
